Experimental data published in patent US20230381182A1, “Biomarkers Related to Immune Checkpoint Inhibitor Therapy and Methods of Using the Same” (Senda Biosciences, Inc., priority 2020, published 2023).

What was measured:
AhR = molecular target: T1, AhR (Homo sapiens, UniProt P35869); assay: DRE-Luciferase reporter assay (HepG2-Luc); assay type: cell-based; conditions: Human HepG2 liver carcinoma AhR-Lucia reporter cells; inhibition of luciferase activity induced by AhR activating ligand at its EC50
T1 construct: endogenous in cells; host or cells: Human HepG2 liver carcinoma AhR-Lucia reporter cells (DRE-luciferase reporter stably transfected)
T1 sequence (P35869 11-848): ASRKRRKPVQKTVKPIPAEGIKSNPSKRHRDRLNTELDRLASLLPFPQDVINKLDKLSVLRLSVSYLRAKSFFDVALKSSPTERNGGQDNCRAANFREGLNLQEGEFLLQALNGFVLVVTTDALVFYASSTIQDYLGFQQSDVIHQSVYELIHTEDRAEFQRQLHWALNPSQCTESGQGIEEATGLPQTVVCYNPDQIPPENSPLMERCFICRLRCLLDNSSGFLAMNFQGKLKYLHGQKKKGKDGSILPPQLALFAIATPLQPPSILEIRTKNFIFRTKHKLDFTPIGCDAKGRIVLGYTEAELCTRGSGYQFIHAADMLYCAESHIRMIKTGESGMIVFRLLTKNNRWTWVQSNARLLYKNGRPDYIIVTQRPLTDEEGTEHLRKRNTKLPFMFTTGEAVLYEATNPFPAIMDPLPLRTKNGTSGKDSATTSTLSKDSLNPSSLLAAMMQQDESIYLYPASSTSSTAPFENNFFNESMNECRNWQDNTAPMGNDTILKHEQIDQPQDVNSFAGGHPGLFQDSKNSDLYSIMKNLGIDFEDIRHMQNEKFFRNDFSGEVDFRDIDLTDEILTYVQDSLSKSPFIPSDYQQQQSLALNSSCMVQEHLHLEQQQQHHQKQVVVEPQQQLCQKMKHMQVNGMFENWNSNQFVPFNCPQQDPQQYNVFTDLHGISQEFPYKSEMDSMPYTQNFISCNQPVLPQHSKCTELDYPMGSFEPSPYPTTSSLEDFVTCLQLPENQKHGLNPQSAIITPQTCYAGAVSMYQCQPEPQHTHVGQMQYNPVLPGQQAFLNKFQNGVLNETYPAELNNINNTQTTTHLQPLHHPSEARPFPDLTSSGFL
Excerpt: AhR binds to dioxin responsive elements (DRE) upstream of the genes that it activates. One measure of AhR activity is activation of a reporter gene, such as luciferase, downstream of one or multiple DRE elements. Luciferase activity reflects activation and inhibition of AhR in the cells expressing this reporter. 20000 Human HepG2 liver carcinoma—AhR-Lucia reporter cells or Human HT29 colon adenocarcinoma-AhR reporter cells or other cell lines with a DRE-luciferase reporter stably transfected were plated in Eagle's Minimal Essential Medium, 10% heat-inactivated FBS, 1× non-essential amino acids Pen-Strep (10,000 U/mL) and Normocin (100 ug/mL) in plates (96-well, 384-well or other plates) and incubated overnight at 37° C. in a CO2 incubator and treated with and without AhR antagonists at a log dilution starting at 100 μM. […]
Cells were incubated for 24 or 48 hours or another time point and the supernatant was analyzed for determination of luciferase activity as a read-out of the AhR activation or inhibition. Luciferase was measured with the commercial kit QUANTI-Luc™ assay solution kit from InvivoGen following the manufacturer's instructions.
The level of luciferase with only agonist ligand added was the maximum signal while the luciferase with […] was the minimum signal. IC50 values were determined as the concentration which inhibits half of the luciferase activity.

CT26 cells = assay: Anti-tumor efficacy in CT26 mouse model unresponsive to anti-PD-L1 therapy; assay type: in vivo, Balb/c mice; conditions: Compound No. 30 10 mg/kg p.o. once a day over 14 days coadministered with anti-PD-L1 antibody 10 mg/kg i.p. every 3 days
Procedure: The anti-tumor efficacy of Compound No. 30 was studied in a CT26 mouse model which is unresponsive to anti-PD-L1 therapy only. CT26 cells were implanted subcutaneously into Balb/c mice which were then randomized and treated either with an […], an anti-PD-L1 antibody, or Compound No. 30 of Table 2 in combination with the anti-PD-L1 antibody. Compound No. 30 was dosed 10 mg/kg, p.o. once a day over 14 days and the anti-PD-L1 antibody was dosed at 10 mg/kg i.p. every 3 days.

Row | Compound | IC50 (AhR) [nM] | tumor volume (tumor growth curves) (CT26 cells; p=0.039, Mann-Whitney, FIG. 4A) | tumor weight (CT26 cells; p=0.067, Mann-Whitney, FIG. 4B)
1 | O=c1c2cc(-c3ccc(OC(F)(F)F)cc3)nc(-c3cccnc3)c2ncn1C[C@@H](O)C(F)(F)F [compound 123, (R)-8-(pyridin-3-yl)-3-(3,3,3-trifluoro-2-hydroxypropyl)-6-(4-(trifluoromethoxy)phenyl)pyrido[3,4-d]pyrimidin-4(3H)-one] | < 100 | – | –
2 | C[C@H](n1cnc2c(-c3cnn(C)c3)nc(-c3ccc(Cl)cc3)cc2c1=O)C(C)(C)O [Compound No. 30, (S)-6-(4-chlorophenyl)-3-(3-hydroxy-3-methylbutan-2-yl)-8-(1-methyl-1H-pyrazol-4-yl)pyrido[3,4-d]pyrimidin-4(3H)-one] | – | reduction in tumor volume | reduction in tumor weight
